From patent US8637670B2, “Imidazo [4,5-C]quinoline derivatives and their use in the treatment of tumors and/or inflammation” (Piramal Enterprises Limited, priority 2009, dated 2014)

Experiments:
PC3 = assay: Cytotoxicity, propidium iodide assay, PC3; assay type: cell-based; conditions: Homo sapiens, PC-3; Prostate, PC3, 48 hours treatment; read-out: IC50, C2a (PC3)
Protocol: (§1) The assay was designed as in the reference, Anticancer Drugs, 2002, 13, 1-8, the disclosure of which is incorporated by reference for the teaching of the assay.
(§2) Cells from cell lines as mentioned in the table given below were seeded at a density of 3000 cells/well in a white opaque 96-well plate. Following incubation at 37° C./5% CO2 for a period of 18-24 hours, the cells were treated with various concentrations (stock solution was prepared in DMSO and subsequent dilutions were made in media as per ATCC guidelines) of the compounds of Example 1-40 was for a period of 48 hours. At the end of treatment, the spent culture medium was discarded, the cells were washed with 1×PBS and 200 μl of 7 μg/ml propidium iodide was added to each well. The plates were frozen at −70° C. for at least 24 hours. For analysis, the plates were brought to RT, allowed to thaw and were read in PoleStar fluorimeter with the fluorescence setting. The percentage of viable cells in the non-treated set of wells was considered to be 100 and the percentage viability following treatment was calculated accordingly. IC50 values were calculated from graphs plotted using these percentages. Table 4 depicts the IC50 values of compounds of Example 1-40 in individual cell lines.
(§3) The abbreviations for the Cell Lines as used in Table 4 are: […]

OVCAR 3 = assay: Cytotoxicity, propidium iodide assay, OVCAR 3; assay type: cell-based; conditions: Homo sapiens; Ovarian, OVCAR 3, 48 hours treatment; read-out: IC50, C3b (OVCAR 3)
Protocol: as §1, §2, §3

TNF-α = assay: Human monocyte assay, LPS-stimulated TNF-α (ELISA); assay type: cell-based; conditions: human monocytes, 1 μg/ml LPS, 5 hours, read-out: TNFα (IC50)
Protocol: (§4) The assay was designed as in the reference, Physiol. Res., 2003, 52, 593-598, the disclosure of which is incorporated by reference for the teaching of the assay.
(§5) Peripheral blood mononuclear cells (hPBMC) were harvested from human blood and suspended in RPMI 1640 culture medium containing 10% FCS, 100 U/mL penicillin and […] streptomycin (assay medium). Monocytes in the hPBMCs were counted using a Coulter Counter following which the cells were resuspended at 2×10^5 monocytes/mL. A cell suspension containing 2×10^4 monocytes was aliquoted per well of a 96-well plate. Subsequently, the hPBMCs were incubated for 4-5 hours at 37° C. under 5% CO2 (During the incubation, the monocytes adhered to the bottom of 96-well plastic culture plate). Following the incubation, the non-adherent lymphocytes were washed with assay medium and the adherent monocytes re-fed with assay medium. After a 48-hour incubation period (37° C., 5% CO2), monocytes were pretreated with various concentrations of compounds of Example 1-40 (prepared in DMSO) or vehicle (0.5% DMSO) for 30 minutes and stimulated with 1 μg/ml LPS (Escherchia coli 0111:B4, Sigma Chemical Co., St. Louis, Mo.). The incubation was continued for 5 hours at 37° C., 5% CO2. Supernatants were harvested, assayed for IL-6 and TNF-α by ELISA as described by the manufacturer (BD Biosciences, USA). Dexamethasone (10 μM) was used as standard for this assay. The 50% inhibitory concentration (IC50) values were calculated by a nonlinear regression method. In all experiments, a parallel plate was run to ascertain the toxicity of compounds of Example 1-40. The toxicity was determined using the MTS assay as described in Am. J. Physiol. Cell Physiol., 2003, 285, C813-C822.

PI3Kα kinase = target: T1, PI3Kα kinase (Homo sapiens, UniProt P42336); assay: PI3Kα assay (32P incorporation into phosphatidylinositol, TLC densitometry); assay type: biochemical; conditions: At 100 nM
T1 construct: purchased Millipore, USA
Protocol: The assay was designed as in the reference, Cell, 2006, 125, 733-47 (Supplemental Data), the disclosure of which is incorporated by reference for the teaching of the assay.
The kinase reaction was carried out in a 25 μL volume in a 1.5 mL microcentrifuge tube. The reaction mixture consisted of kinase buffer (10 mM Hepes, pH 7.5, 50 mM MgCl2), 20 ng PI3Kα kinase (Millipore, USA), 12.5 μg phosphatidylinositol (PI), 10 μM ATP and 1 μCi ^32γ P dATP. Compounds of Example 1-40 were added at concentrations (stock solution was prepared in DMSO and subsequent dilutions were made in kinase buffer) as mentioned in the table. The reaction mixture was incubated at 30° C. for 20 minutes and was terminated by adding 1:1 mixture of MeOH and chloroform. The tube contents were mixed on a vortex mixer and centrifuged at 10000 rpm for 2 minutes. 10 μL of the organic (lower) phase was spotted on to a TLC plate (silica, mobile phase: n-propanol and 2 M glacial acetic acid in 65:35 ratio). The plates were dried and exposed to an X-ray film. The bands appearing as a result of ^32γ P incorporation in PI were quantitated using the QuantityOne (BioRad, USA) densitometry program. PI-103 (Calbiochem, USA) was used as a standard.

H460 = assay: Cytotoxicity, propidium iodide assay, H460; assay type: cell-based; conditions: Homo sapiens, NCI-H460; Lung, H460, 48 hours treatment; read-out: IC50, C1b (H460)
Protocol: as §1, §2, §3

U 373 = assay: Cytotoxicity, propidium iodide assay, U 373; assay type: cell-based; conditions: Homo sapiens, U373 MG; Glioblastoma, U 373, 48 hours treatment; read-out: IC50, C7a (U 373)
Protocol: as §1, §2, §3

PI3K α = assay: PI3K activity assay, cell-based ELISA of AKT (Ser 473) phosphorylation; conditions: Homo sapiens, Ovarian cell line A2780, 20% FCS stimulation
Protocol: The assay was designed as in the reference, Biochemical Journal, 2000, 350, 717-722, the disclosure of which is incorporated by reference for the teaching of the assay.
Seed cells (Ovarian cell line A2780, ATCC) were plated in a 96 well microtitre plate at a density of 50,000 cells/cm^2 in appropriate complete cell culture medium. The cells were allowed to adhere for 18-24 hours. The cells were allowed to starve for 24 hours. The cells were pretreated (in triplicates) with the compounds of Example 1-40 (stock solution was prepared in DMSO and subsequent dilutions were made in kinase buffer) at a concentration of 10 μM for one hour. Then the cells were stimulated with 20% FCS for 30 minutes. A typical assay would consist of a set of unstimulated cells, a set of stimulated cells and a set of cells treated with compounds of Example 1-40 and a set of cells treated with the stimulator. The medium was discarded. The cells were fixed with 100 μL of 3.7% formaldehyde for 15 minutes. The formaldehyde was discarded by inverting the plate and tapping it on a thick tissue paper layer to remove traces. The cells were washed and permeabilized with 200 μL PBS+Triton-X 100 solution (hereafter referred to as PBS-Triton, containing 0.1% triton-X 100 in 1×PBS) three times, incubating the cells each time for 5 minutes. 100 μL blocking solution (10% FCS in PBS-Triton) was added and incubated for 1 hour at 25° C. The blocking solution was discarded and cells were incubated with the primary antibody in PBS-Triton at a dilution of 1:500 for 1 hour at RT (25° C.). [The primary antibody is Phospho-AKT (Ser 473); Cell Signaling; USA, Cat. No. 9271]. The primary antibody solution was discarded and the cells were washed 3 times with PBS-Triton solution and incubated with the HRP-conjugated secondary antibody in PBS-Triton at a dilution of 1:500 for 1 hour at RT (25° C.). The cells were washed 3 times with PBS-Triton followed by two washes with PBS (to remove traces of triton-X 100). The OPD (o-phenylene diamine dihydrochloride) substrate was prepared for detection of the signal by dissolving one tablet set (two tablets) of SigmaFast OPD (Sigma, USA, Cat No. P9187) in 20 mL distilled water. It should be kept protected from light. 100 μL OPD solutions was added to the wells and the plate was incubated in the dark for 3-5 minutes (depending upon the development of the color). The reaction was stopped by adding 50 μL 2 NH2SO4. The absorbance was measured at 490 nm. The values were expressed in the treated samples, in terms of percentage or fold decrease in AKT phosphorylation with respect to the induced sample. PI-103 (Calbiochem, USA) was used as a standard.

IL-6 = assay: Human monocyte assay, LPS-stimulated IL-6 (ELISA); assay type: cell-based; conditions: human monocytes, 1 μg/ml LPS, 5 hours
Protocol: as §4, §5

A2780 = assay: Cytotoxicity, propidium iodide assay, A2780; assay type: cell-based; conditions: Homo sapiens; Ovarian, A2780, 48 hours treatment; read-out: IC50, C3a (A2780)
Protocol: as §1, §2, §3

BxPC3 = assay: Cytotoxicity, propidium iodide assay, BxPC3; assay type: cell-based; conditions: Homo sapiens, BXPC-3; Pancreatic, BxPC3, 48 hours treatment; read-out: IC50, C5c (BxPC3)
Protocol: as §1, §2, §3

A549 = assay: Cytotoxicity, propidium iodide assay, A549; assay type: cell-based; conditions: Homo sapiens; Lung, A549, 48 hours treatment; read-out: IC50, C1a (A549)
Protocol: as §1, §2, §3

HCT116 = assay: Cytotoxicity, propidium iodide assay, HCT116; assay type: cell-based; conditions: Homo sapiens, HCT-116; Colon, HCT116, 48 hours treatment; read-out: IC50, C4a (HCT116)
Protocol: as §1, §2, §3

AsPC 1 = assay: Cytotoxicity, propidium iodide assay, AsPC 1; assay type: cell-based; conditions: Homo sapiens, ASPC1; Pancreatic, AsPC 1, 48 hours treatment; read-out: IC50, C5b (AsPC 1)
Protocol: as §1, §2, §3

MDA MB 468 = assay: Cytotoxicity, propidium iodide assay, MDA MB 468; assay type: cell-based; conditions: Homo sapiens; Breast, MDA MB 468, 48 hours treatment; read-out: IC50, C6b (MDA MB 468)
Protocol: as §1, §2, §3

BT 549 = assay: Cytotoxicity, propidium iodide assay, BT 549; assay type: cell-based; conditions: Homo sapiens; Breast, BT 549, 48 hours treatment; read-out: IC50, C6d (BT 549)
Protocol: as §1, §2, §3

T1 sequence (P42336 whole entry): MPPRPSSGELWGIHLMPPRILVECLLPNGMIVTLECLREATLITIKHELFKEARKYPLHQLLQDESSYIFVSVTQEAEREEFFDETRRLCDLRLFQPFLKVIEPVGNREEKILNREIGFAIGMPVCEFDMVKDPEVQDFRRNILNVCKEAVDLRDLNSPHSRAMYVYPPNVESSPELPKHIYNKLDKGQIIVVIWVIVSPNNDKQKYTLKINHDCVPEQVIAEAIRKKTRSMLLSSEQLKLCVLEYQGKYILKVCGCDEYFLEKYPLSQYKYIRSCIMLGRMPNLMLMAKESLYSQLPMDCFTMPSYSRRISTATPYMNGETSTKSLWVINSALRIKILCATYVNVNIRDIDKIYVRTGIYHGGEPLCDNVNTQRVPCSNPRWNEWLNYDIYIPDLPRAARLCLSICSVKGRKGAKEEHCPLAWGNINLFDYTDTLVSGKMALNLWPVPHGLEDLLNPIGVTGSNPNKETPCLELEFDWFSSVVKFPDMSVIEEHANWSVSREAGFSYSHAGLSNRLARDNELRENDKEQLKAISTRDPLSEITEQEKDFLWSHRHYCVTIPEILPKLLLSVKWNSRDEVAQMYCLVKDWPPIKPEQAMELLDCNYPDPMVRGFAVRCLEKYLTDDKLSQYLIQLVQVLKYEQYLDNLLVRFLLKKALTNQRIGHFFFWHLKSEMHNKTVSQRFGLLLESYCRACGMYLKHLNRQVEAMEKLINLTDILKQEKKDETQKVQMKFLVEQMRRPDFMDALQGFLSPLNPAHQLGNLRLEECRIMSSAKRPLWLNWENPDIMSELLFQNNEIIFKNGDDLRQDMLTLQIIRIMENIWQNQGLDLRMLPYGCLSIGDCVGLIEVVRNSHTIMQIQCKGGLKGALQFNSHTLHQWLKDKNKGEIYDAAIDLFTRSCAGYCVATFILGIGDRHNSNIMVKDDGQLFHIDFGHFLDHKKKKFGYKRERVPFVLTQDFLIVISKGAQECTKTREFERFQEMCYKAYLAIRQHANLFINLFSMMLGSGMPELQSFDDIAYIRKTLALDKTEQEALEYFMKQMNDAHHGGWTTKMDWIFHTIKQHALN
T1 sequence (P27986 whole entry partner): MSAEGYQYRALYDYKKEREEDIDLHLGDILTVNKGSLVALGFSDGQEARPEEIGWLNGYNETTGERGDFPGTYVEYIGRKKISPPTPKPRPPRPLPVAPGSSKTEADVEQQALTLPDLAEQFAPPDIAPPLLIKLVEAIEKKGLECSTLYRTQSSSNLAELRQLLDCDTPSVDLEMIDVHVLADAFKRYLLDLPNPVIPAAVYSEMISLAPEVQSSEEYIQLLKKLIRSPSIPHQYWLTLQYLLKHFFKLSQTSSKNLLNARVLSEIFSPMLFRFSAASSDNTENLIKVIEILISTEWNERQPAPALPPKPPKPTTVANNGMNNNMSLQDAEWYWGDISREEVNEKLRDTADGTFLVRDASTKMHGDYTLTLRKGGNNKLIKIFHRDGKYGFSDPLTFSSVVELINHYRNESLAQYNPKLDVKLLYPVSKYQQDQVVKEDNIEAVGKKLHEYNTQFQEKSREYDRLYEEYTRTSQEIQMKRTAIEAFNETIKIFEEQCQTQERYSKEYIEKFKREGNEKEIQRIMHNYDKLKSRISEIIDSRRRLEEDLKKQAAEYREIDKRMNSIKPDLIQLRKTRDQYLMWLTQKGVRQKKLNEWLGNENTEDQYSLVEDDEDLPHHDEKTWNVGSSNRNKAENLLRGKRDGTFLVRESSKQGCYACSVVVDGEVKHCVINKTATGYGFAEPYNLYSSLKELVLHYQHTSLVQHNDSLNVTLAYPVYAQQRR

Structure (SMILES) | IC50 (PC3) [nM] | IC50 (OVCAR 3) [nM] | IC50 (TNF-α) [nM] | inhibition at 0.1 µM (PI3Kα kinase) [%] | IC50 (H460) [nM] | IC50 (U 373) [nM] | inhibition at 10 µM (PI3K α) [%] | IC50 (IL-6) [nM] | IC50 (A2780) [nM] | IC50 (BxPC3) [nM] | IC50 (A549) [nM] | IC50 (HCT116) [nM] | IC50 (AsPC 1) [nM] | IC50 (MDA MB 468) [nM] | IC50 (BT 549) [nM]
CC(C)(C#N)c1ccc(-n2c(=O)n(S(=O)(=O)c3ccccc3C#N)c3cnc4ccc(Br)cc4c32)cc1 [Example 2, 2-(8-Bromo-1-(4-(2-cyanopropan-2-yl)phenyl)-2-oxo-1H-imidazo[4,5-c]quinolin-3 (2H)-ylsulfonyl)benzonitrile] | ≤ 1000 | 1000 to 3000 | ≤ 1000 | 10 to 50 | ≤ 1000 | > 3000 | 10 to 50 | 1000 to 10000 | ≤ 1000 | – | – | – | – | – | –
Cc1cccc(S(=O)(=O)n2c(=O)n(-c3ccc(C(C)(C)C#N)cc3)c3c4cc(Cl)ccc4ncc32)c1 [Example 19, 2-(4-(8-Chloro-2-oxo-3-(m-tolylsulfonyl)-2,3-dihydro-1H-imidazo[4,5-c]quinolin-1-yl)phenyl)-2-methylpropanenitrile] | 1000 to 3000 | > 3000 | – | – | 1000 to 3000 | – | – | – | – | > 3000 | ≤ 1000 | > 3000 | – | – | –
CC(C)(C#N)c1ccc(-n2c(=O)n(S(C)(=O)=O)c3cnc4ccc(Br)cc4c32)cc1 [Example 18, 2-(4-(8-Bromo-3-(methylsulfonyl)-2-oxo-2,3-dihydro-1H-imidazo[4,5-c]quinolin-1-yl)phenyl)-2-methylpropanenitrile] | 1000 to 3000 | – | – | 10 to 50 | ≤ 1000 | – | – | 1000 to 10000 | ≤ 1000 | 1000 to 3000 | 1000 to 3000 | 1000 to 3000 | 1000 to 3000 | – | –
CC(=O)c1ccc(S(=O)(=O)n2c(=O)n(-c3ccc(C(C)(C)C#N)cc3)c3c4cc(C)ccc4ncc32)cc1 [Example 25, 2-(4-(3-(4-Acetylphenylsulfonyl)-8-methyl-2-oxo-2,3-dihydro-1H-imidazo[4,5-c]quinolin-1-yl)phenyl)-2-methylpropanenitrile] | > 3000 | – | – | – | > 3000 | – | – | > 30000 | > 3000 | – | > 3000 | – | – | > 3000 | > 3000
CC(C)(C#N)c1ccc(-n2c(=O)n(S(=O)(=O)c3ccc(F)cc3F)c3cnc4ccc(Br)cc4c32)cc1 [Example 17, 2-(4-(8-Bromo-3-(2,4-difluorophenylsulfonyl)-2-oxo-2,3-dihydro-1H-imidazo[4,5-c]quinolin-1-yl)phenyl)-2-methylpropanenitrile] | 1000 to 3000 | – | – | 10 to 50 | 1000 to 3000 | – | > 50 | 1000 to 10000 | ≤ 1000 | 1000 to 3000 | 1000 to 3000 | 1000 to 3000 | 1000 to 3000 | – | –
